Measurements: ChEMBL document CHEMBL3885861, “Open TG-GATES”

Species: Rattus norvegicus
Assay: Open TG-GATES - Regimen: Daily Repeat
Format: toxicity, organism-based, Sprague-Dawley
Set-up: regimen Daily Repeat, gender Male, age 6 weeks
Details: in vivo, po, 6 mg/kg, route gavage, dose level Low; for APTT / Bas / Eos / Fbg / Hb / Ht / Lym / MCH / MCHC / MCV / Mono / Neu / PT / Plat / RBC / Ret / WBC: tissue Blood
[1] = 72 h, tissue Kidney, time 3 day
[2] = 72 h, tissue Plasma, time 3 day

## CC(C)NNC(=O)c1ccncc1 [IPRONIAZID]
72 h, time 3 day
  TERMINAL_BW: 205.6 g
  APTT: 20.8 s
  Bas: 0%
  Eos: 1%
  Fbg: 309.2 mg/dL
  Hb: 13.5 g/dL
  Ht: 39.1%
  Lym: 78.4%
  MCH: 21.3 pg
  MCHC: 34.4%
  MCV: 61.9 fL
  Mono: 2.2%
  Neu: 17.2%
  PT: 16.2 s
  Plat: 123.8 x10_4/uL
  RBC: 632.6 x10_4/ul
  Ret: 6.8%
  WBC: 92 x10_2/uL
[1]
  KIDNEY_L: 0.9 g
  KIDNEY_R: 0.9 g
  KIDNEY_TOTAL: 1.8 g
72 h, tissue Liver, time 3 day
  LIVER: 9.6 g
[2]
  A/G: 1.4
  ALP: 1667 IU/L
  ALT: 37.4 IU/L
  AST: 73.8 IU/L
  BUN: 17.2 mg/dL
  CRE: 0.2 mg/dL
  Ca: 10.6 mg/dL
  Cl: 108.8 meq/L
  DBIL: 0 mg/dL
  GLC: 187.2 mg/dL
  IP: 7.2 mg/dL
  K: 4.3 meq/L
  LDH: 266.6 IU/L
  Na: 143.2 meq/L
  PL: 146.2 mg/dL
  RALB: 3.2 g/dL
  TBIL: 0.002 mg/dL
  TC: 77.2 mg/dL
  TG: 102.2 mg/dL
  TP: 5.6 g/dL
  gamma-GTP: 1.2 IU/L
[…], time 7 day
  TERMINAL_BW: 237.7 g
  APTT: 21.4 s
  Bas: 0%
  Eos: 0.8%
  Fbg: 315.6 mg/dL
  Hb: 13.4 g/dL
  Ht: 37.5%
  Lym: 83.6%
  MCH: 21.3 pg
  MCHC: 35.6%
  MCV: 59.7 fL
  Mono: 2.2%
  Neu: 12.6%
  PT: 15.4 s
  Plat: 114 x10_4/uL
  RBC: 628.6 x10_4/ul
  Ret: 5.1%
  WBC: 110.8 x10_2/uL
[…], time 14 day
  TERMINAL_BW: 274.7 g
  APTT: 22.2 s
  Bas: 0%
  Eos: 1%
  Fbg: 289.4 mg/dL
  Hb: 13.8 g/dL
  Ht: 40%
  Lym: 81.6%
  MCH: 20.1 pg
  MCHC: 34.6%
  MCV: 58 fL
  Mono: 2.2%
  Neu: 14.8%
  PT: 15.7 s
  Plat: 118.3 x10_4/uL
  RBC: 690.8 x10_4/ul
  Ret: 4.7%
  WBC: 112.4 x10_2/uL
[…], time 28 day
  TERMINAL_BW: 367.4 g
  APTT: 22.6 s
  Bas: 0%
  Eos: 1%
  Fbg: 317 mg/dL
  Hb: 13.7 g/dL
  Ht: 39%
